The experiment has as its target T1, human recombinant HDAC6 (Homo sapiens, UniProt Q9UBN7).
T1 construct: purchased Calbiochem 382180
T1 sequence (Q9UBN7 1-1215): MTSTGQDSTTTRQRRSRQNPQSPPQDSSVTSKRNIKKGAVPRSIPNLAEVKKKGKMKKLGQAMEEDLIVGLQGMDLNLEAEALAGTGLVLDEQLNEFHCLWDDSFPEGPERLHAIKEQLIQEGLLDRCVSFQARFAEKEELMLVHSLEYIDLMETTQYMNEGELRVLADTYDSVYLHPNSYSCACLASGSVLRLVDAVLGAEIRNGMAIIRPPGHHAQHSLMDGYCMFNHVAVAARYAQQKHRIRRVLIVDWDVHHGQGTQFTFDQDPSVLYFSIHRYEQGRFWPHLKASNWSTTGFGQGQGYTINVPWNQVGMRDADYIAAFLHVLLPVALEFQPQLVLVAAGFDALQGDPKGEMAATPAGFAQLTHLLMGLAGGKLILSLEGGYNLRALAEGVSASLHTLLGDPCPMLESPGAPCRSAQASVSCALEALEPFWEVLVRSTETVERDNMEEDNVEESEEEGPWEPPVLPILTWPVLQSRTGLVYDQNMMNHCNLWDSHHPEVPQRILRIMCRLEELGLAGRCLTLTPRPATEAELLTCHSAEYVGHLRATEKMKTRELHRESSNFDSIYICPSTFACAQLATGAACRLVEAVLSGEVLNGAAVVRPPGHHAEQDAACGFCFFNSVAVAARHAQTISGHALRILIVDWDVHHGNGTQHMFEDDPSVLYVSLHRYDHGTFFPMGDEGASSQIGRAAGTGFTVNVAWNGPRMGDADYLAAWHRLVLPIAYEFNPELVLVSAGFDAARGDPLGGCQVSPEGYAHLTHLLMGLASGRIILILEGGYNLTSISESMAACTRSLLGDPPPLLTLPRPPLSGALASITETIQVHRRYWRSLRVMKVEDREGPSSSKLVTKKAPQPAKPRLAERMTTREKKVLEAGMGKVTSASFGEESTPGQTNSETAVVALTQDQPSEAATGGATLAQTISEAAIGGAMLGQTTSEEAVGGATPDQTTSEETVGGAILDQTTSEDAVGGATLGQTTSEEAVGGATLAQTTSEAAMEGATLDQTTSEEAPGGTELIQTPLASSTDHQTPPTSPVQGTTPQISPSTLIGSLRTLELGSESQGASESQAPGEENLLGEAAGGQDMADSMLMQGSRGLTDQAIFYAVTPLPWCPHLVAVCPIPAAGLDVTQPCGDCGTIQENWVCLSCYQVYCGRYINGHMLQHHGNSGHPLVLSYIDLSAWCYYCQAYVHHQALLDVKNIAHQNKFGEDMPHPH
In words: HDAC6 enzyme activity inhibition assay (HDAC Fluorimetric Drug Discovery Kit). It is filed as biochemical. The following applies: for HDAC6 selectivity (fold): HDAC6 over HDAC1; for IC50: human recombinant HDAC6, same protocol as HDAC1, read-out: HDAC6. An outline of the steps: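 Human recombinant HDAC1 or HDAC6 (0.3 μg) reacted with 10 μM Fluor de Lys-SIRT1 substrate and 5-fold compound dilutions for 60 min at 30 °C. Developer II added for 30 min, fluorescence read at Ex 360/Em 460; IC50 calculated from the readings.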

For `CCc1ccc(N(Cc2ccc(-c3nnc(C(F)F)o3)cc2F)C(=O)N2CCS(=O)(=O)CC2)cc1` [Compound 21512, N-(4-(5-(difluoromethyl)-1,3,4-oxadiazol-2-yl)-2-fluorobenzyl)-N-(4-ethylphenyl)thiomorpholine-4-carboxamide 1,1-dioxide], the “HDAC6 selectivity (fold)” value is on record as 108 fold and the IC50 turned out to be 0.093 µM.

On to `O=C(N1CCS(=O)(=O)CC1)N(Cc1ccc(-c2nnc(C(F)(F)F)o2)cc1F)c1ccc(OC(F)(F)F)cc1` [Compound 21513, N-(2-fluoro-4-(5-(trifluoromethyl)-1,3,4-oxadiazol-2-yl)benzyl)-N-(4-(trifluoromethoxy)phenyl)thiomorpholine-4-carboxamide 1,1-dioxide], for which the “HDAC6 selectivity (fold)” value is on record as 47 fold and the IC50 was determined as 0.212 µM.

Turning to `O=C(N1CCS(=O)(=O)CC1)N(Cc1ccc(-c2nnc(C(F)F)o2)cc1F)c1ccc(OC(F)(F)F)cc1` [Compound 21514, N-(4-(5-(difluoromethyl)-1,3,4-oxadiazol-2-yl)-2-fluorobenzyl)-N-(4-(trifluoromethoxy)phenyl)thiomorpholine-4-carboxamide 1,1-dioxide], the “HDAC6 selectivity (fold)” value came to 286 fold and the IC50 was 0.035 µM.

In the case of `CN1CCN(Cc2ccc(N(Cc3ccc(-c4nnc(C(F)(F)F)o4)cc3F)C(=O)N3CCS(=O)(=O)CC3)cc2)CC1` [Compound 21515, N-(2-fluoro-4-(5-(trifluoromethyl)-1,3,4-oxadiazol-2-yl)benzyl)-N-(4-((4-methylpiperazin-1-yl)methyl)phenyl)thiomorpholine-4-carboxamide 1,1-dioxide], the “HDAC6 selectivity (fold)” value is 115 fold and the IC50 was 0.087 µM.

Regarding `CN1CCN(Cc2ccc(N(Cc3ccc(-c4nnc(C(F)F)o4)cc3F)C(=O)N3CCS(=O)(=O)CC3)cc2)CC1` [Compound 21516, N-(4-(5-(difluoromethyl)-1,3,4-oxadiazol-2-yl)-2-fluorobenzyl)-N-(4-((4-methylpiperazin-1-yl)methyl)phenyl)thiomorpholine-4-carboxamide 1,1-dioxide], the “HDAC6 selectivity (fold)” value was 250 fold and the IC50 was determined as 0.04 µM.

Regarding `O=C(N1CCS(=O)(=O)CC1)N(Cc1ccc(-c2nnc(C(F)F)o2)cc1F)c1ccc(-c2cccnc2)cc1` [Compound 21518, N-(4-(5-(difluoromethyl)-1,3,4-oxadiazol-2-yl)-2-fluorobenzyl)-N-(4-(pyridin-3-yl)phenyl)thiomorpholine-4-carboxamide 1,1-dioxide], the “HDAC6 selectivity (fold)” value was determined as 400 fold and the IC50 worked out at 0.025 µM.

Consider `O=C(N1CCS(=O)(=O)CC1)N(Cc1ccc(-c2nnc(C(F)F)o2)cc1F)c1ccc(-c2ccncc2)cc1` [Compound 21520, N-(4-(5-(difluoromethyl)-1,3,4-oxadiazol-2-yl)-2-fluorobenzyl)-N-(4-(pyridin-4-yl)phenyl)thiomorpholine-4-carboxamide 1,1-dioxide], for which the “HDAC6 selectivity (fold)” value is on record as 159 fold and the IC50 came to 0.063 µM.

For the molecule `Cn1ccc2cc(-c3ccc(N(Cc4ccc(-c5nnc(C(F)(F)F)o5)cc4F)C(=O)N4CCS(=O)(=O)CC4)cc3)ccc21` [Compound 21521, N-(2-fluoro-4-(5-(trifluoromethyl)-1,3,4-oxadiazol-2-yl)benzyl)-N-(4-(1-methyl-1H-indol-5-yl)phenyl)thiomorpholine-4-carboxamide 1,1-dioxide], the “HDAC6 selectivity (fold)” value is 18 fold and the IC50 turned out to be 0.565 µM.

In the case of `O=C(N1CC2(COC2)C1)N(Cc1ccc(-c2nnc(C(F)F)o2)cc1F)c1ccccc1` [Compound 21522, N-(4-(5-(difluoromethyl)-1,3,4-oxadiazol-2-yl)-2-fluorobenzyl)-N-phenyl-2-oxa-6-azaspiro[3.3]heptane-6-carboxamide], the “HDAC6 selectivity (fold)” value was 455 fold and the IC50 was 0.022 µM.

`CN1CCN(C(=O)N(Cc2ccc(-c3nnc(C(F)F)o3)cn2)c2ccccc2)CC1` [Compound 21527, N-((5-(5-(difluoromethyl)-1,3,4-oxadiazol-2-yl)pyridin-2-yl)methyl)-4-methyl-N-phenylpiperazine-1-carboxamide]: the “HDAC6 selectivity (fold)” value is reported as 357 fold and the IC50 is 0.028 µM.

For `O=C(N1CCS(=O)(=O)CC1)N(Cc1ccc(-c2nnc(C(F)(F)F)o2)cc1F)c1cccc(OC(F)(F)F)c1` [Compound 21528, N-(2-fluoro-4-(5-(trifluoromethyl)-1,3,4-oxadiazol-2-yl)benzyl)-N-(3-(trifluoromethoxy)phenyl)thiomorpholine-4-carboxamide 1,1-dioxide], the “HDAC6 selectivity (fold)” value is given as 47 fold and the IC50 was determined as 0.214 µM.

Consider `O=C(N1CCS(=O)(=O)CC1)N(Cc1ccc(-c2nnc(C(F)F)o2)cc1F)c1cccc(OC(F)(F)F)c1` [Compound 21529, N-(4-(5-(difluoromethyl)-1,3,4-oxadiazol-2-yl)-2-fluorobenzyl)-N-(3-(trifluoromethoxy)phenyl)thiomorpholine-4-carboxamide 1,1-dioxide], for which the “HDAC6 selectivity (fold)” value is on record as 278 fold and the IC50 came to 0.036 µM.

Regarding `O=C(N1CCS(=O)(=O)CC1)N(Cc1ccc(-c2nnc(C(F)(F)F)o2)cc1F)c1ccc(F)c(Cl)c1` [Compound 21530, N-(3-chloro-4-fluorophenyl)-N-(2-fluoro-4-(5-(trifluoromethyl)-1,3,4-oxadiazol-2-yl)benzyl)thiomorpholine-4-carboxamide 1,1-dioxide], the “HDAC6 selectivity (fold)” value turned out to be 167 fold and the IC50 is 0.06 µM.

`O=C(N1CCS(=O)(=O)CC1)N(Cc1ccc(-c2nnc(C(F)F)o2)cc1F)c1ccc(F)c(Cl)c1` [Compound 21531, N-(3-chloro-4-fluorophenyl)-N-(4-(5-(difluoromethyl)-1,3,4-oxadiazol-2-yl)-2-fluorobenzyl)thiomorpholine-4-carboxamide 1,1-dioxide]: the “HDAC6 selectivity (fold)” value was 769 fold and the IC50 turned out to be 0.013 µM.

In the case of `O=C(N1CCOCC1)N(Cc1ncc(-c2nnc(C(F)F)o2)cn1)c1ccccc1` [Compound 21532, N-((5-(5-(difluoromethyl)-1,3,4-oxadiazol-2-yl)pyrimidin-2-yl)methyl)-N-phenylmorpholine-4-carboxamide], the “HDAC6 selectivity (fold)” value is 208 fold and the IC50 turned out to be 0.048 µM.

`CN1CCN(C(=O)N(Cc2ccc(-c3nnc(C(F)F)o3)cc2F)c2cccc(-c3ccccc3)c2)CC1` [Compound 21533, N-([1,1′-biphenyl]-3-yl)-N-(4-(5-(difluoromethyl)-1,3,4-oxadiazol-2-yl)-2-fluorobenzyl)-4-methylpiperazine-1-carboxamide]: the “HDAC6 selectivity (fold)” value is reported as 70 fold and the IC50 was 0.143 µM.

With `CN1CCN(C(=O)N(Cc2ccc(-c3nnc(C(F)F)o3)cc2F)c2cccc(-c3ccoc3)c2)CC1` [Compound 21534, N-(4-(5-(difluoromethyl)-1,3,4-oxadiazol-2-yl)-2-fluorobenzyl)-N-(3-(furan-3-yl)phenyl)-4-methylpiperazine-1-carboxamide], the “HDAC6 selectivity (fold)” value came out at 175 fold and the IC50 turned out to be 0.057 µM.

In the case of `CN1CCN(C(=O)N(Cc2ccc(-c3nnc(C(F)F)o3)cc2F)c2cccc(-c3ccncc3)c2)CC1` [Compound 21535, N-(4-(5-(difluoromethyl)-1,3,4-oxadiazol-2-yl)-2-fluorobenzyl)-4-methyl-N-(3-(pyridin-4-yl)phenyl)piperazine-1-carboxamide], the “HDAC6 selectivity (fold)” value is given as 227 fold and the IC50 came out at 0.044 µM.

For the molecule `CN1CCN(C(=O)N(Cc2ccc(-c3nnc(C(F)F)o3)cc2F)c2cccc(-c3cccnc3)c2)CC1` [Compound 21536, N-(4-(5-(difluoromethyl)-1,3,4-oxadiazol-2-yl)-2-fluorobenzyl)-4-methyl-N-(3-(pyridin-3-yl)phenyl)piperazine-1-carboxamide], the “HDAC6 selectivity (fold)” value is 556 fold and the IC50 came to 0.018 µM.

Source of the values: patent US10717716B2, “1,3,4-oxadiazole derivative compounds as histone deacetylase 6 inhibitor, and the pharmaceutical composition comprising the same” (Chong Kun Dang Pharmaceutical Corp., priority 2015, dated 2020).
